Activity calls are given as the source filed them. The calls are words filed in the database; no cut-off is given here.
Tests used:
MCF7 [1] = test: Induction of apoptosis in human MCF7 cells assessed as morphological alteration up to 20 uM after 48 hrs by Hoechst 33258 staining based fluorescence microscopic method; type: functional, cell-based
MCF7 [2] = test: Induction of apoptosis in human MCF7 cells assessed as late apoptotic cells at 5 uM after 48 hrs by Annexin-V FITC/propidium iodide staining based flow cytometry (reference value: 6.22%); type: functional
MCF7 [3] = test: Induction of apoptosis in human MCF7 cells assessed as necrotic cells at 20 uM after 48 hrs by Annexin-V FITC/propidium iodide staining based flow cytometry (reference value: 4.69%); type: functional
SH-SY5Y = test: Cytotoxicity against human SH-SY5Y cells assessed as reduction in cell viability after 72 hrs by MTT assay; type: functional, cell-based
MCF7 [4] = test: Induction of apoptosis in human MCF7 cells assessed as granular apoptotic body formation up to 20 uM after 48 hrs by Hoechst 33258 staining based fluorescence microscopic method; type: functional, cell-based
MCF7 [5] = test: Induction of apoptosis in human MCF7 cells assessed as early apoptotic cells at 5 uM after 48 hrs by Annexin-V FITC/propidium iodide staining based flow cytometry (reference value: 0.50%); type: functional
MCF7 [6] = test: Induction of apoptosis in human MCF7 cells assessed as early apoptotic cells at 20 uM after 48 hrs by Annexin-V FITC/propidium iodide staining based flow cytometry (reference value: 0.50%); type: functional
MCF7 [7] = test: Induction of apoptosis in human MCF7 cells assessed as necrotic cells at 2.5 uM after 48 hrs by Annexin-V FITC/propidium iodide staining based flow cytometry (reference value: 4.69%); type: functional
MCF7 [8] = test: Induction of apoptosis in human MCF7 cells assessed as necrotic cells at 10 uM after 48 hrs by Annexin-V FITC/propidium iodide staining based flow cytometry (reference value: 4.69%); type: functional
MCF7 [9] = test: Induction of apoptosis in human MCF7 cells assessed as early apoptotic cells at 1 uM after 48 hrs by Annexin-V FITC/propidium iodide staining based flow cytometry (reference value: 0.50%); type: functional
MCF7 [10] = test: Induction of apoptosis in human MCF7 cells assessed as cell shrinkage up to 20 uM after 48 hrs by Hoechst 33258 staining based fluorescence microscopic method; type: functional
MCF7 [11] = test: Cell cycle arrest in human MCF7 cells assessed as accumulation at G2 phase at 5 uM after 48 hrs by propidium iodide staining based flow cytometry (reference value: 13.24%); type: functional
MCF7 [12] = test: Cell cycle arrest in human MCF7 cells assessed as accumulation at G2 phase at 0.5 uM after 48 hrs by propidium iodide staining based flow cytometry (reference value: 13.24%); type: functional
MCF7 [13] = test: Cytotoxicity against human MCF7 cells assessed as reduction in cell viability after 72 hrs by MTT assay; type: functional, cell-based; conditions: MCF7, 72 h
MCF7 [14] = test: Cell cycle arrest in human MCF7 cells assessed as accumulation at G1 phase at 0.5 uM after 48 hrs by propidium iodide staining based flow cytometry (reference value: 45.21%); type: functional
MCF7 [15] = test: Cell cycle arrest in human MCF7 cells assessed as accumulation at S phase at 0.5 uM after 48 hrs by propidium iodide staining based flow cytometry (reference value: 41.55%); type: functional
MCF7 [16] = test: Cell cycle arrest in human MCF7 cells assessed as accumulation at S phase at 5 uM after 48 hrs by propidium iodide staining based flow cytometry (reference value: 41.55%); type: functional
MCF7 [17] = test: Induction of apoptosis in human MCF7 cells after 48 hrs by Annexin-V FITC/propidium iodide staining based flow cytometry; type: functional, cell-based
MCF7 [18] = test: Induction of apoptosis in human MCF7 cells assessed as viable cells at 2.5 uM after 48 hrs by Annexin-V FITC/propidium iodide staining based flow cytometry (reference value: 88.59%); type: functional; conditions: MCF7, 48 h, read-out: Activity
MCF7 [19] = test: Induction of apoptosis in human MCF7 cells assessed as late apoptotic cells at 2.5 uM after 48 hrs by Annexin-V FITC/propidium iodide staining based flow cytometry (reference value: 6.22%); type: functional
A-375 = test: Cytotoxicity against human A375 cells assessed as reduction in cell viability after 72 hrs by MTT assay; type: functional, cell-based; conditions: A-375, 72 h
MCF7 [20] = test: Induction of apoptosis in human MCF7 cells assessed as late apoptotic cells at 10 uM after 48 hrs by Annexin-V FITC/propidium iodide staining based flow cytometry (reference value: 6.22%); type: functional
MCF7 [21] = test: Cell cycle arrest in human MCF7 cells assessed as accumulation at G2 phase at 2.5 uM after 48 hrs by propidium iodide staining based flow cytometry (reference value: 13.24%); type: functional
MCF7 [22] = test: Cell cycle arrest in human MCF7 cells assessed as accumulation at S phase at 1 uM after 48 hrs by propidium iodide staining based flow cytometry (reference value: 41.55%); type: functional
L02 = test: Cytotoxicity against human L02 cells assessed as reduction in cell viability after 72 hrs by MTT assay; type: functional, cell-based; conditions: L02, 72 h
MCF7 [23] = test: Cell cycle arrest in human MCF7 cells assessed as accumulation at S phase at 10 uM after 48 hrs by propidium iodide staining based flow cytometry (reference value: 41.55%); type: functional
MCF7 [24] = test: Induction of apoptosis in human MCF7 cells assessed as viable cells at 20 uM after 48 hrs by Annexin-V FITC/propidium iodide staining based flow cytometry (reference value: 88.59%); type: functional; conditions: MCF7, 48 h, read-out: Activity
A549 = test: Cytotoxicity against human A549 cells assessed as reduction in cell viability after 72 hrs by MTT assay; type: functional, cell-based; conditions: A549, 72 h
MDA-MB-231 = test: Cytotoxicity against human MDA-MB-231 cells assessed as reduction in cell viability after 72 hrs by MTT assay; type: functional, cell-based; conditions: MDA-MB-231, 72 h
MCF7 [25] = test: Cell cycle arrest in human MCF7 cells assessed as accumulation at G1 phase after 48 hrs by propidium iodide staining based flow cytometry; type: functional
MCF7 [26] = test: Induction of apoptosis in human MCF7 cells assessed as early apoptotic cells at 10 uM after 48 hrs by Annexin-V FITC/propidium iodide staining based flow cytometry (reference value: 0.50%); type: functional
U-87 MG = test: Cytotoxicity against human U87 cells assessed as reduction in cell viability after 72 hrs by MTT assay; type: functional, cell-based, U-87MG ATCC
MCF7 [27] = test: Induction of apoptosis in human MCF7 cells assessed as necrotic cells at 1 uM after 48 hrs by Annexin-V FITC/propidium iodide staining based flow cytometry (reference value: 4.69%); type: functional
MCF7 [28] = test: Cell cycle arrest in human MCF7 cells assessed as accumulation at G1 phase at 2.5 uM after 48 hrs by propidium iodide staining based flow cytometry (reference value: 45.21%); type: functional
MCF7 [29] = test: Induction of apoptosis in human MCF7 cells assessed as viable cells at 5 uM after 48 hrs by Annexin-V FITC/propidium iodide staining based flow cytometry (reference value: 88.59%); type: functional; conditions: MCF7, 48 h, read-out: Activity
MCF7 [30] = test: Cell cycle arrest in human MCF7 cells assessed as accumulation at G1 phase at 5 uM after 48 hrs by propidium iodide staining based flow cytometry (reference value: 45.21%); type: functional
MCF7 [31] = test: Induction of apoptosis in human MCF7 cells assessed as late apoptotic cells at 20 uM after 48 hrs by Annexin-V FITC/propidium iodide staining based flow cytometry (reference value: 6.22%); type: functional

C[C@H]1[C@H](N2CCN(C(=O)Nc3ccc(OC(F)(F)F)cc3)CC2)O[C@@H]2O[C@@]3(C)CC[C@H]4[C@H](C)CC[C@@H]1[C@@]24OO3
Activity (MCF7 [1]): Active | Activity (MCF7 [2]): 33.62% | Activity (MCF7 [3]): 10.18% | IC50 (SH-SY5Y): 3.6 µM | Activity (MCF7 [4]): Active | Activity (MCF7 [5]): 1.38% | Activity (MCF7 [6]): 4.78% | Activity (MCF7 [7]): 20.85% | Activity (MCF7 [8]): 17.18% | Activity (MCF7 [9]): 0.48% | Activity (MCF7 [10]): Active | Activity (MCF7 [11]): 7.83% | Activity (MCF7 [12]): 12.33% | IC50 (MCF7 [13]): 2100 nM | Activity (MCF7 [14]): 47.95% | Activity (MCF7 [15]): 39.72% | Activity (MCF7 [16]): 15.49% | Activity (MCF7 [17]): Dose-dependent effect | viability at 2.5 µM (MCF7 [18]): 59.5% | Activity (MCF7 [19]): 19.17% | IC50 (A-375): 3.4 µM | Activity (MCF7 [20]): 53.36% | Activity (MCF7 [21]): 9.18% | Activity (MCF7 [22]): 33.33% | IC50 (L02): 6.7 µM | Activity (MCF7 [23]): 9.2% | viability at 20 µM (MCF7 [24]): 16.2% | IC50 (A549): 19.9 µM | IC50 (MDA-MB-231): 8.4 µM | Activity (MCF7 [25]): Dose-dependent effect | Activity (MCF7 [26]): 0.8% | IC50 (U-87 MG): 19.7 µM | Activity (MCF7 [27]): 8.1% | Activity (MCF7 [28]): 64.46% | viability at 5 µM (MCF7 [29]): 43.5% | Activity (MCF7 [30]): 76.68% | Activity (MCF7 [31]): 68.8%

From ChEMBL document CHEMBL4118205, “Design, synthesis and biological evaluation of artemisinin derivatives containing fluorine atoms as anticancer agents” (Bioorg Med Chem Lett, 2018)
